Assay results from patent publication US20090076012A1, “Modulation of pathogenicity” (priority 2002, published 2009).

Each compound was assayed on bioluminescent sensor strain Escherichia coli MT102 (pSB403) (assay: Biosensor assay: quorum sensing inhibition, bioluminescence of the sensor strain). Settings: Escherichia coli, 4 h, 3oxo-C6-HSL 100 nM; bioluminescence after 4 hours at 30° C.
Type: cell-based
Procedure: Quorum sensing inhibition of the compounds was investigated with the aid of the bioluminescent sensor strain Escherichia coli MT102 (pSB403) (Winson et al., FEMS Microbiol. Lett. 163:185-92, 1998). Plasmid pSB403 contains the Photobacterium fischeri luxR gene together with the […] promoter region as a transcriptional fusion to the bioluminescence genes luxCDABE of Photorhabdus luminescence.
Inhibitory studies were conducted in a microtitre dish assay as follows: the E. coli sensor strain grown over night in LB medium (Sambrook et al., Molecular Cloning: A Laboratory Manual. 2nd Edn. Cold Spring Harbor Laboratory, New York, 1989) was diluted 1:4 and grown for another 1 hour at 30° C. After addition of 3oxo-C6-HSL (final concentration 100 nM) 100 μl of an exponential culture suspension were filled in the wells of a FluoroNunc Polysorp microtitre dish. The test compounds were added to the culture in different concentrations and bioluminescence was measured after 4 hours of incubation at 30° C. with a Lamda Fluoro 320 Plus reader (Bio-Tek Instruments). Inhibitor-mediated reduction of light emission was correlated with the value obtained without addition of the test compounds. IC50 values (concentration of inhibitor required for 50% inhibition of the signal compared to the signal without inhibitor) were determined by using a fitting function after drawing a graph of the activities of eight different inhibitor concentrations.

**Q.** How did the IC50 turn out when Cn1nccc1NC(=O)c1cnc(Cl)nc1C(F)(F)F [Compound 1, 2-Chloro-4-trifluoromethyl-pyrimidine-5-carboxylic acid (2-methyl-2H-pyrazol-3-yl)-amide] was run?
**A.** 1 to 50 µM

**Q.** COc1ccc(NC(=O)c2sccc2Br)cn1 [Compound 2, 3-Bromo-thiophene-2-carboxylic acid (6-methoxy-pyridin-3-yl)-amide] was tested. Which IC50 did it give?
**A.** 1 to 50 µM

**Q.** How did the IC50 turn out when O=C(Nc1cccnc1)c1cc(Cl)sc1Cl [Compound 3, 2,5-Dichloro-thio-phene-3-carboxylic acid pyridin-3-ylamide] was run?
**A.** 1 to 50 µM

**Q.** COC(=O)c1ccsc1NC(=O)c1cnc(Cl)nc1C(F)(F)F [Compound 4, 2-[(2-Chloro-4-trifluoro-methyl-pyrimidine-5-carbonyl)-amino]-thiophene-3-carboxylic acid methyl ester] was tested. Which IC50 did it give?
**A.** > 100 µM

**Q.** For COC(=O)c1scc(C)c1NC(=O)c1cccs1 [Compound 5, 4-Methyl-3-[(thiophene-2-carbonyl)-amino]-thiophene-2-carboxylic acid methyl ester], which IC50 is on record?
**A.** > 100 µM

**Q.** Which IC50 does the source give for O=C(Nc1cccc(C(F)(F)F)c1)c1cnc(Cl)nc1C(F)(F)F [Compound 6, 2-Chloro-4-trifluoromethyl-pyrimidine-5-carboxylic acid (3-trifluoromethyl-phenyl)-amide] here?
**A.** 50 to 100 µM

**Q.** Which IC50 does the source give for O=C(Nc1ccc(OC(F)(F)F)cc1)c1cnc(Cl)nc1C(F)(F)F [Compound 7, 2-Chloro-4-trifluoromethyl-pyrimidine-5-carboxylic acid (4-trifluoromethoxy-phenyl)-amide] here?
**A.** 1 to 50 µM

**Q.** For COc1ccc(NC(=O)c2cccnc2SC)cn1 [Compound 8, N-(6-Methoxy-pyridin-3-yl)-2-methylsulfanyl-nicotinamide], which IC50 is on record?
**A.** > 100 µM

**Q.** With COc1ccc(NC(=O)c2cncc(Br)c2)cn1 [Compound 9, 5-Bromo-N-(6-methoxy-pyridin-3-yl)-nicotinamide] as the compound, how does the IC50 read?
**A.** > 100 µM

**Q.** Which IC50 does the source give for O=C(Nc1ccc(Br)cn1)c1cc(Cl)nc(Cl)c1 [Compound 10] here?
**A.** > 100 µM

**Q.** For Cc1cc(C(=O)Nc2cccnc2)cc(Cl)n1 [Compound 11, 2-Chloro-6-methyl-N-pyridin-3-yl-iso-nicotinamide], which IC50 is on record?
**A.** 1 to 50 µM

**Q.** CCn1nc(C)c(Br)c1C(=O)Nc1ccnn1C [Compound 12, 4-Bromo-2-ethyl-5-methyl-2H-pyrazole-3-carboxylic acid (2-methyl-2H-pyrazol-3-yl)-aide] was tested. Which IC50 did it give?
**A.** 1 to 50 µM

**Q.** Which IC50 does the source give for Cc1cc(C(=O)Nc2ccnn2C)n(C(C)(C)C)n1 [Compound 13, 2-tert-Butyl-5-methyl-2H-pyrazole-3-carboxylic acid (2-methyl-2H-pyrazol-3-yl)-amide] here?
**A.** > 100 µM

**Q.** How did the IC50 turn out when Cn1nc(-c2ccc(Cl)cc2)cc1NC(=O)c1cccs1 [Compound 14, Thiophene-2-carboxylic acid [5-(4-chloro-phenyl)-2-methyl-2H-pyrazol-3-yl]-amide] was run?
**A.** 1 to 50 µM

**Q.** How did the IC50 turn out when Cn1nc(-c2cccs2)cc1NC(=O)c1cccc(Cl)c1 [Compound 15, 3-Chloro-N-(2-methyl-5-thiophen-2-yl-2H-pyrazol-3-yl)-benzamide] was run?
**A.** 1 to 50 µM

**Q.** With Cn1nc(-c2ccc(Cl)cc2)cc1NC(=O)CCCCCBr [Compound 16, 6-Bromo-hexanoic acid [5-(4chloro-phenyl)-2-methyl-2H-pyrazol-3-yl]-amide] as the compound, how does the IC50 read?
**A.** 1 to 50 µM

**Q.** With CCCCCCC(=O)Nc1cc(-c2ccccc2)nn1C [Compound 17, Heptanoic acid (2-methyl-5-phenyl-2H-pyrazol-3-yl)-amide] as the compound, how does the IC50 read?
**A.** 1 to 50 µM

**Q.** How did the IC50 turn out when Cn1nc(-c2ccccc2)cc1NC(=O)CCCCCBr [Compound 18, 6-Bromo-hexanoic acid (2-methyl-5-phenyl-2H-pyrazol-3-yl)-amide] was run?
**A.** 1 to 50 µM

**Q.** With CCCCCCC(=O)Nc1cc(-c2cccs2)nn1C [Compound 19, Heptanoic acid (2-methyl-5-thiophen-2-yl-2H-pyrazol-3-yl)-amide] as the compound, how does the IC50 read?
**A.** 1 to 50 µM

**Q.** Cn1nc(-c2cccs2)cc1NC(=O)CCCCCBr [Compound 20, 6-Bromo-hexanoic acid (2-methyl-5-thiophen-2-yl-2H-pyrazol-3-yl)-amide] was tested. Which IC50 did it give?
**A.** 1 to 50 µM

**Q.** For CCCCCCC(=O)Nc1c(Br)cnn1C [Compound 21], which IC50 is on record?
**A.** 1 to 50 µM

**Q.** Which IC50 does the source give for Cn1nccc1NC(=O)CCCCCBr [Compound 22, 6-Bromo-hexanoic acid (2-methyl-2H-pyrazole-3-yl)-amide] here?
**A.** 1 to 50 µM

**Q.** Which IC50 does the source give for Cn1ncc(Br)c1NC(=O)CCCCCBr [Compound 23, 6-Bromo-hexanoic acid (4-bromo-2-methyl-2H-pyrazol-3-yl)-amide] here?
**A.** 1 to 50 µM

**Q.** How did the IC50 turn out when CCCCCCC(=O)Nc1ccnn1C [Compound 24, Heptanoic acid (2-methyl-2H-pyrazol-3-yl)-amide] was run?
**A.** 1 to 50 µM

**Q.** How did the IC50 turn out when O=C(NNc1nccc(C(F)(F)F)n1)c1cccs1 [Compound 25, Thiophene-2carboxylic acid N′-(4-trifluoromethyl-pyrimidin-2-yl)-hydrazide] was run?
**A.** 1 to 50 µM

**Q.** Cc1cc(C(=O)NNc2nccc(C(F)(F)F)n2)n(C)n1 [Compound 26, 2,5-Dimethyl-2H-pyrazole-3-carboxylic acid N′-(4-trifluoromethyl-pyrimidin-2-yl)-hydrazide] was tested. Which IC50 did it give?
**A.** 1 to 50 µM

**Q.** For Cc1nc(C(F)(F)F)ccc1C(=O)NNC(=O)c1cccs1 [Compound 27, 2-Methyl-6-trifluoromethyl-nicotinic acid N′-(thiophene-2-carbonyl)-hydrazide], which IC50 is on record?
**A.** 1 to 50 µM

**Q.** Which IC50 does the source give for Cc1csc(C(=O)NNC(=O)c2ccc(C(F)(F)F)cc2)c1 [Compound 28, 4-Trifluoromethyl-benzoic acid N′-(4-methyl-thiophene-2-carbonyl)-hydrazide] here?
**A.** 50 to 100 µM

**Q.** O=C(NNC(=O)c1cccs1)c1ccc(OC(F)(F)F)cc1 [Compound 29, 4-Trifluoromethoxy-benzoic acid N′-(thiophene-2-carbonyl)-hydrazide] was tested. Which IC50 did it give?
**A.** > 100 µM

**Q.** COc1cscc1C(=O)NNC(=O)c1ccc(Cl)cc1 [Compound 30, 4-Chloro-benzoic acid N′-(4-methoxy-thiophene-3-carbonyl)-hydrazide] was tested. Which IC50 did it give?
**A.** > 100 µM

**Q.** With O=C(NNC(=O)c1cccs1)c1cccc(Cl)c1 [Compound 31, 3-Chloro-benzoic acid N′-(thiophene-2-carbonyl)-hydrazide] as the compound, how does the IC50 read?
**A.** 50 to 100 µM

**Q.** Cc1c(C(=O)NNC(=O)c2cccs2)[n+]([O-])c2ccccc2[n+]1[O-] [Compound 32, N′-(3-Methyl-1,4dioxy-quinoxaline-2-carbonyl)-thiophene-2-carboxylic acid hydrazide] was tested. Which IC50 did it give?
**A.** 50 to 100 µM

**Q.** How did the IC50 turn out when O=C(NNC(=O)c1sccc1Cl)c1cnn(-c2ccccc2)c1C(F)(F)F [Compound 33, 3-Chloro-thiophene-2-carboxylic acid N′-(1-phenyl-5-trifluoromethyl-1H-pyrazole-4-carbonyl)-hydrazide] was run?
**A.** > 100 µM

**Q.** With O=C(NNC(=O)c1cnn(-c2ccc(Cl)cc2)c1C(F)(F)F)c1cccs1 [Compound 34, Thio-phene-2-carboxylic acid N′-[1-(4-chloro-phenyl)-5-trifluoromethyl-1H-pyrazole-4-carbonyl]-hydrazide] as the compound, how does the IC50 read?
**A.** 50 to 100 µM

**Q.** With O=C(NNC(=O)c1cccs1)c1ccco1 [Compound 35, Furan-2-carboxylic acid N′-(thiophene-2-carbonyl)-hydrazide] as the compound, how does the IC50 read?
**A.** 50 to 100 µM

**Q.** How did the IC50 turn out when Cc1csc(C(=O)NNC(=O)c2ccco2)c1Cl [Compound 36, Furan-2-carboxylic acid N′-(3-chloro-4-methyl-thiophene-2-carbonyl)-hydrazide] was run?
**A.** 50 to 100 µM

**Q.** For CCOc1ccsc1C(=O)NNC(=O)c1ccco1 [Compound 37, Furan-2-carboxylic acid N′-(3-ethoxy-thiophene-2-carbonyl)-hydrazide], which IC50 is on record?
**A.** 50 to 100 µM

**Q.** Which IC50 does the source give for COc1c(C(=O)NNC(=O)c2ccco2)csc1Cl [Compound 38, Furan-2-carboxylic acid N′-(5-chloro-4-methoxy-thiophene-3-carbonyl)-hydrazide] here?
**A.** 1 to 50 µM

**Q.** For O=C(NNC(=O)c1sccc1Br)c1ccco1 [Compound 39, Furan-2-carboxylic acid N′-(3-bromo-thiophene-2-carbonyl)-hydrazide], which IC50 is on record?
**A.** 1 to 50 µM

**Q.** O=C(NNC(=O)c1cc(Cl)sc1Cl)c1ccco1 [Compound 40, Furan-2-carboxylic acid N′-(2,5-dichloro-thiophene-3-carbonyl)-hydrazide] was tested. Which IC50 did it give?
**A.** 1 to 50 µM

**Q.** O=C(NNC(=O)c1sc2ccccc2c1Cl)c1ccco1 [Compound 41, Furan-2-carboxylic acid N′-(3-chloro-benzo[b]thiophene-2-carbonyl)-hydrazide] was tested. Which IC50 did it give?
**A.** 1 to 50 µM

**Q.** Which IC50 does the source give for COc1c(C(=O)NNC(=O)c2cccs2)csc1Br [Compound 42, Thiophene-2-carboxylic acid N′-(5-bromo-4-methoxy-thiophene-3-carbonyl)-hydrazide] here?
**A.** 1 to 50 µM

**Q.** With Cc1csc(C(=O)NNC(=O)c2cccs2)c1Cl [Compound 43, Thiophene-2-carboxylic acid N′-(3-chloro-4-methyl-thiophene-2-carbonyl)-hydrazide] as the compound, how does the IC50 read?
**A.** 1 to 50 µM

**Q.** For CCOc1ccsc1C(=O)NNC(=O)c1sccc1Cl [Compound 44, 3-Chloro-thiophene-2-carboxylic acid N′-(3-ethoxy-thiophene-2-carbonyl)-hydrazide], which IC50 is on record?
**A.** > 100 µM

**Q.** CCOc1ccsc1C(=O)NNC(=O)c1cccs1 [Compound 45, Thiophene-2-carboxylic acid N′-(3-ethoxy-thiophene-2-carbonyl)-hydrazide] was tested. Which IC50 did it give?
**A.** 1 to 50 µM

**Q.** How did the IC50 turn out when O=C(NNC(=O)c1cccs1)c1cccs1 [Compound 46, Thiophene-2-carboxylic acid N′-(thiophene-2-carbonyl)-hydrazide] was run?
**A.** 50 to 100 µM
